Assay results reported in PubChem BioAssay AID328 (DTP/NCI, 2004).
Values joined by “and” are separate entries in the source; they are usually repeats but may differ in a detail not shown here. Identical values can stand only once. Inconclusive results and toxic doses are left out.

System: BDF1 mice, P388 leukemia ip, median survival T/C
Test: NCI In Vivo Anticancer Drug Screen. Data for tumor model P388 Leukemia (intraperitoneal) in B6D2F1 (BDF1) mice
Details: endpoint: median survival time, higher = longer survival
Summary of the method: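 Survival ratio, drug arm over vehicle arm, in mice with a transplanted tumour.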

[1] = dose: 25.0 mg/kg/injection, schedule: Q01DX009 (ip), vehicle: saline with Tween-80
[2] = dose: 50.0 mg/kg/injection, schedule: Q01DX009 (ip), vehicle: saline with Tween-80
[3] = dose: 100.0 mg/kg/injection, schedule: Q01DX009 (ip), vehicle: saline with Tween-80
[4] = dose: 25.0 mg/kg/injection, schedule: Q01DX009 (ip), vehicle: Klucel (hydroxypropylcellulose) (HPC)
[5] = dose: 50.0 mg/kg/injection, schedule: Q01DX005 (ip), vehicle: saline with Tween-80
[6] = dose: 100.0 mg/kg/injection, schedule: Q01DX005 (ip), vehicle: saline with Tween-80
[7] = dose: 100.0 mg/kg/injection, schedule: Q04DX003 (ip), vehicle: saline with Tween-80
[8] = dose: 200.0 mg/kg/injection, schedule: Q04DX003 (ip), vehicle: saline with Tween-80
[9] = dose: 400.0 mg/kg/injection, schedule: Q04DX003 (ip), vehicle: saline with Tween-80
[10] = dose: 50.0 mg/kg/injection, schedule: Q04DX003 (ip), vehicle: Klucel (hydroxypropylcellulose) (HPC)
[11] = dose: 100.0 mg/kg/injection, schedule: Q04DX003 (ip), vehicle: Klucel (hydroxypropylcellulose) (HPC)

Question: How did the T/C (dose: 50.0 mg/kg/injection, schedule: Q04DX002 (ip), vehicle: saline with Tween-80) turn out when CC1(C)OC2C=CC3C(OC(=O)C3(C)Cl)C2O1 (stereo not drawn) was run?
Answer: 112 % of control and 114 % of control

Question: What about the T/C (dose: 100.0 mg/kg/injection, schedule: Q04DX002 (ip), vehicle: saline with Tween-80) of the same compound?
Answer: 99 % of control and 103 % of control and 104 % of control

Question: What about the T/C (dose: 200.0 mg/kg/injection, schedule: Q04DX002 (ip), vehicle: saline with Tween-80) of the same compound?
Answer: 103 % of control and 104 % of control

Question: What about the T/C (dose: 400.0 mg/kg/injection, schedule: Q04DX002 (ip), vehicle: saline with Tween-80) of the same compound?
Answer: 99 % of control and 101 % of control (2×)

Question: O=C1SC2(CCCCC2)SC1=O was tested. Which T/C [1] did it give?
Answer: 95 % of control

Question: What about the T/C [2] of the same compound?
Answer: 95 % of control

Question: What about the T/C [3] of the same compound?
Answer: 104 % of control

Question: Nc1ccc(/C=C/c2ccnc3ccccc23)cc1 was tested. Which T/C (dose: 3.13 mg/kg/injection, schedule: Q04DX003 (ip), vehicle: saline with Tween-80) did it give?
Answer: 109 % of control

Question: What about the T/C (dose: 6.25 mg/kg/injection, schedule: Q04DX003 (ip), vehicle: saline with Tween-80) of the same compound?
Answer: 109 % of control

Question: And the T/C (dose: 12.5 mg/kg/injection, schedule: Q01DX009 (ip), vehicle: saline with Tween-80)?
Answer: 112 % of control

Question: What about the T/C (dose: 12.5 mg/kg/injection, schedule: Q04DX003 (ip), vehicle: saline with Tween-80) of the same compound?
Answer: 109 % of control

Question: What about the T/C [1] of the same compound?
Answer: 91 % of control

Question: Which results are given for CC(=O)Nc1cc2c(cc1[N+](=O)[O-])-c1ccc([N+](=O)[O-])cc1C2?
Answer: T/C (dose: 6.25 mg/kg/injection, schedule: Q01DX009 (ip), vehicle: Klucel (hydroxypropylcellulose) (HPC)): 89 % of control; T/C (dose: 12.5 mg/kg/injection, schedule: Q01DX009 (ip), vehicle: Klucel (hydroxypropylcellulose) (HPC)): 97 % of control; T/C [4]: 89 % of control and 91 % of control

Question: Which results are given for Cc1nc2ccccc2c(=O)n1-c1nccs1?
Answer: T/C [5]: 102 % of control; T/C [6]: 107 % of control; T/C (dose: 200.0 mg/kg/injection, schedule: Q01DX005 (ip), vehicle: saline with Tween-80): 102 % of control

Question: CCOc1c([N+](=O)[O-])cc([N+](=O)[O-])c2ccccc12 was tested. Which T/C [1] did it give?
Answer: 96 % of control

Question: What about the T/C [2] of the same compound?
Answer: 96 % of control

Question: What about the T/C [3] of the same compound?
Answer: 93 % of control

Question: Which results are given for C=C(COc1ccc(Cl)cc1)COc1ccc(Cl)cc1?
Answer: T/C (dose: 50.0 mg/kg/injection, schedule: Q01DX001 (ip), vehicle: other): 103 % of control; T/C (dose: 50.0 mg/kg/injection, schedule: Q04DX003 (ip), vehicle: other): 100 % of control; T/C (dose: 100.0 mg/kg/injection, schedule: Q01DX001 (ip), vehicle: other): 100 % of control; T/C (dose: 100.0 mg/kg/injection, schedule: Q04DX003 (ip), vehicle: other): 91 % of control; T/C (dose: 200.0 mg/kg/injection, schedule: Q01DX001 (ip), vehicle: other): 94 % of control; T/C (dose: 200.0 mg/kg/injection, schedule: Q04DX003 (ip), vehicle: other): 101 % of control; T/C (dose: 400.0 mg/kg/injection, schedule: Q01DX001 (ip), vehicle: other): 102 % of control; T/C (dose: 400.0 mg/kg/injection, schedule: Q04DX003 (ip), vehicle: other): 93 % of control

Question: Which results are given for N/C(CCNO)=N\O?
Answer: T/C (dose: 75.0 mg/kg/injection, schedule: Q01DX009 (ip), vehicle: saline): 96 % of control; T/C (dose: 150.0 mg/kg/injection, schedule: Q01DX009 (ip), vehicle: saline): 86 % of control; T/C (dose: 300.0 mg/kg/injection, schedule: Q01DX009 (ip), vehicle: saline): 96 % of control

Question: What does the source list for CC(=O)OCC(=O)[C@@]1(O)CC[C@H]2[C@@H]3C[C@H](C)C4=CC(=O)C=C[C@]4(C)[C@H]3[C@@H](O)C[C@@]21C?
Answer: T/C [7]: 104 % of control; T/C [8]: 104 % of control; T/C [9]: 100 % of control

Question: Which T/C (dose: 100.0 mg/kg/injection, schedule: Q04DX003 (ip), vehicle: saline) does the source give for O=c1oc(-c2ccccc2)nc2c(Cl)ccc(Cl)c12 here?
Answer: 109 % of control

Question: What about the T/C (dose: 200.0 mg/kg/injection, schedule: Q04DX003 (ip), vehicle: saline) of the same compound?
Answer: 104 % of control

Question: What about the T/C (dose: 400.0 mg/kg/injection, schedule: Q04DX003 (ip), vehicle: saline) of the same compound?
Answer: 104 % of control

Question: Which results are given for c1cnc2sccc2c1?
Answer: T/C [7]: 100 % of control; T/C [8]: 109 % of control

Question: CC1=CC(O)(C2(O)C=C(C)CC(C)(C)C2)CC(C)(C)C1 (stereo not drawn) was tested. Which T/C (dose: 100.0 mg/kg/injection, schedule: Q01DX009 (ip), vehicle: other) did it give?
Answer: 94 % of control

Question: What about the T/C (dose: 200.0 mg/kg/injection, schedule: Q01DX009 (ip), vehicle: other) of the same compound?
Answer: 108 % of control

Question: And the T/C (dose: 400.0 mg/kg/injection, schedule: Q01DX009 (ip), vehicle: other)?
Answer: 103 % of control

Question: Which results are given for CN1OCC2CCCC(c3ccccc3)C21 (stereo not drawn)?
Answer: T/C [10]: 100 % of control; T/C [11]: 100 % of control; T/C (dose: 200.0 mg/kg/injection, schedule: Q04DX003 (ip), vehicle: Klucel (hydroxypropylcellulose) (HPC)): 100 % of control

Question: How did the T/C [3] turn out when COc1ccc(C(=O)CC(C(=O)O)c2ccc(OC)c(OC)c2)cc1OC (stereo not drawn) was run?
Answer: 104 % of control

Question: And the T/C (dose: 200.0 mg/kg/injection, schedule: Q01DX009 (ip), vehicle: saline with Tween-80)?
Answer: 104 % of control

Question: And the T/C (dose: 400.0 mg/kg/injection, schedule: Q01DX009 (ip), vehicle: saline with Tween-80)?
Answer: 100 % of control

Question: Which T/C (dose: 0.39 mg/kg/injection, schedule: Q01DX009 (ip), vehicle: saline with Tween-80) does the source give for COC(=O)C12Oc3ccc(-c4ccc5c(c4O)C(O)=C4C(=O)CC(C)C(O)C4(C(=O)OC)O5)c(O)c3C(O)=C1C(=O)CC(C)C2O (stereo not drawn) here?
Answer: 100 % of control

Question: What about the T/C (dose: 0.78 mg/kg/injection, schedule: Q01DX009 (ip), vehicle: saline with Tween-80) of the same compound?
Answer: 109 % of control

Question: And the T/C (dose: 0.78 mg/kg/injection, schedule: Q01DX009 (ip), vehicle: saline)?
Answer: 100 % of control

Question: And the T/C (dose: 1.56 mg/kg/injection, schedule: Q01DX009 (ip), vehicle: saline with Tween-80)?
Answer: 104 % of control and 109 % of control

Question: And the T/C (dose: 3.13 mg/kg/injection, schedule: Q01DX009 (ip), vehicle: saline with Tween-80)?
Answer: 104 % of control and 109 % of control

Question: What about the T/C (dose: 3.13 mg/kg/injection, schedule: Q01DX009 (ip), vehicle: saline) of the same compound?
Answer: 93 % of control

Question: What about the T/C (dose: 6.25 mg/kg/injection, schedule: Q01DX009 (ip), vehicle: saline with Tween-80) of the same compound?
Answer: 101 % of control

Question: For OCC1OC(n2ccc3c2ncn2nnnc32)C(O)C1O (stereo not drawn), which T/C (dose: 6.25 mg/kg/injection, schedule: Q01DX009 (ip), vehicle: saline) is on record?
Answer: 97 % of control

Question: What about the T/C (dose: 12.5 mg/kg/injection, schedule: Q01DX009 (ip), vehicle: saline) of the same compound?
Answer: 94 % of control

Question: What about the T/C (dose: 12.5 mg/kg/injection, schedule: Q04DX003 (ip), vehicle: saline) of the same compound?
Answer: 96 % of control

Question: And the T/C (dose: 25.0 mg/kg/injection, schedule: Q01DX009 (ip), vehicle: saline)?
Answer: 94 % of control

Question: And the T/C (dose: 25.0 mg/kg/injection, schedule: Q04DX003 (ip), vehicle: saline)?
Answer: 104 % of control

Question: What about the T/C (dose: 50.0 mg/kg/injection, schedule: Q04DX003 (ip), vehicle: saline) of the same compound?
Answer: 111 % of control

Question: Which T/C [4] does the source give for Cc1c(C(=O)CCl)c(=O)n(-c2ccccc2)n1C here?
Answer: 100 % of control

Question: And the T/C (dose: 25.0 mg/kg/injection, schedule: Q04DX003 (ip), vehicle: Klucel (hydroxypropylcellulose) (HPC))?
Answer: 96 % of control

Question: What about the T/C (dose: 50.0 mg/kg/injection, schedule: Q01DX009 (ip), vehicle: Klucel (hydroxypropylcellulose) (HPC)) of the same compound?
Answer: 104 % of control

Question: And the T/C [10]?
Answer: 100 % of control

Question: And the T/C (dose: 100.0 mg/kg/injection, schedule: Q01DX009 (ip), vehicle: Klucel (hydroxypropylcellulose) (HPC))?
Answer: 91 % of control

Question: And the T/C [11]?
Answer: 100 % of control and 103 % of control

Question: NC(=O)c1cc(Cl)nc2nc(Cl)nc(N)c12 was tested. Which T/C (dose: 50.0 mg/kg/injection, schedule: Q04DX003 (ip), vehicle: saline with Tween-80) did it give?
Answer: 105 % of control

Question: What about the T/C [7] of the same compound?
Answer: 104 % of control and 109 % of control

Question: What about the T/C [8] of the same compound?
Answer: 116 % of control and 117 % of control

Question: What about the T/C [9] of the same compound?
Answer: 116 % of control and 122 % of control

Question: O=C1CCCCC1N1CCCCC1 (stereo not drawn) was tested. Which T/C [5] did it give?
Answer: 98 % of control

Question: What about the T/C [6] of the same compound?
Answer: 105 % of control

Question: Which T/C (dose: 100.0 mg/kg/injection, schedule: Q01DX001 (ip), vehicle: saline with Tween-80) does the source give for CN1C(=O)C(C2(C3C(=O)N(C)C(=O)N(C)C3=O)C(=O)N(C)C(=O)N(C)C2=O)C(=O)N(C)C1=O here?
Answer: 108 % of control

Question: What about the T/C (dose: 200.0 mg/kg/injection, schedule: Q01DX001 (ip), vehicle: saline with Tween-80) of the same compound?
Answer: 104 % of control

Question: What about the T/C (dose: 400.0 mg/kg/injection, schedule: Q01DX001 (ip), vehicle: saline with Tween-80) of the same compound?
Answer: 102 % of control

Question: How did the T/C [11] turn out when COc1ccc(C(=O)c2ccccc2)cc1OC was run?
Answer: 100 % of control

Question: What about the T/C (dose: 400.0 mg/kg/injection, schedule: Q04DX003 (ip), vehicle: Klucel (hydroxypropylcellulose) (HPC)) of the same compound?
Answer: 100 % of control

Question: With CC[C@H]1CN2CCc3cc(OC)c(OC)cc3[C@@H]2C[C@@H]1C[C@H]1NCCc2cc(O)c(OC)cc21 as the compound, how does the T/C (dose: 0.25 mg/kg/injection, schedule: Q01DX010 (ip), vehicle: saline) read?
Answer: 159 % of control

Question: And the T/C (dose: 0.5 mg/kg/injection, schedule: Q01DX010 (ip), vehicle: saline)?
Answer: 150 % of control

Question: And the T/C (dose: 2.0 mg/kg/injection, schedule: Q01DX010 (ip), vehicle: saline)?
Answer: 150 % of control and 190 % of control

Question: What about the T/C (dose: 8.0 mg/kg/injection, schedule: Q01DX010 (ip), vehicle: saline) of the same compound?
Answer: 95 % of control
